# Columns and labels:
# [1] = tested on: Flag-ER; assay: Inducible 3' Flag-ER expression (ARGENT system) in stably transfected MCF-7 derivative, Western blotting; type: cell-based, human; conditions: treated six hours, Western blot, FIG. 2
# Source text: To tightly regulate expression of the Flag-ER gene, the Ariad “ARGENT” inducible gene expression system (25) (www.ariad.com) was used. This system allows for tight and specific regulation of a target gene.
# To identify physiologically relevant ER-interacting proteins, the MCF-7 cell line was used. […] First, a stable derivative of MCF-7 in which target genes can be inducibly expressed was constructed. The construction of this cell line and an example of its use have been previously described (27). Next, the 5′ and 3′ Flag-ER constructs were subcloned into the target vector, and these constructs were stably transfected into the MCF-7 derivative described above. […] Stable transfectants containing either 3′ Flag-ER or empty vector were treated as indicated (in FIG. 2) for six hours, and lysates were analyzed by Western blotting (WB) with antibodies to ER, Flag, or Actin.
# [2] = target: T1, ER/MP1 complex (Homo sapiens, UniProt P03372); conditions: MCF-7 cells pre-treated in absence of E2, then ligand for 2 h; IP with ER or MP1 antibody; FIG. 4
# T1 sequence (P03372 1-595): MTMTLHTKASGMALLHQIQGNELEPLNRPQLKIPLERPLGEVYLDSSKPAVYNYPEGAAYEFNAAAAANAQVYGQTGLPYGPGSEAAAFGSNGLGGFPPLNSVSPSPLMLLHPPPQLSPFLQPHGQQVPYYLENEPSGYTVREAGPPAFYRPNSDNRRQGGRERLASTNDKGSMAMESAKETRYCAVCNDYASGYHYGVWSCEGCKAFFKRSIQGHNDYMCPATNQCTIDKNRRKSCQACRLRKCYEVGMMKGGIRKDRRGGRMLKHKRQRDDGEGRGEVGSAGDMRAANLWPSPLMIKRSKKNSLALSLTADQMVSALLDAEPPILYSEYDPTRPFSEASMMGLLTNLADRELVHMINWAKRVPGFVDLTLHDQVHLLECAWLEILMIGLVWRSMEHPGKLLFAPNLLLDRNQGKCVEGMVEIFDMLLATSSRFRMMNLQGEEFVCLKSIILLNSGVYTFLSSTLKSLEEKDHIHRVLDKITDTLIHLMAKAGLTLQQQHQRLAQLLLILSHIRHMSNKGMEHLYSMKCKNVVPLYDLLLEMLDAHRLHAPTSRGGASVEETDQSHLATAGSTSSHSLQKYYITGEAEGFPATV
# Procedure: One limitation to inducible expression systems is that proteins are expressed at very high levels, and complexes may form that are not physiologically relevant. […] Cell lysates were prepared and precipitated with either 0-ER (Labvision/NeoMarker) or 0-MP1 (Santa Cruz) antibody and protein G agarose beads.
# [3] = target: T2, ER (Homo sapiens, UniProt P03372); conditions: MCF-7 cells, 24 h in medium lacking E2, ligand for 3 h; MP1 vs empty vector; FIG. 5
# T2 sequence (P03372 1-595): T1 sequence (P03372 1-595)
# [4] = tested on: MCF-7 cells; assay: BrdU incorporation proliferation assay in MCF-7 cells transfected with MP1 expression vector or empty vector; type: cell-based, human; conditions: ligand for 48 h, BrdU for the final 5 h, FIG. 6
# Procedure: The ER has both genomic and non-genomic activities, and its activity in transcription assays may not fully represent its ability to regulate cell proliferation. […] To label proliferating cells, BrdU (which is incorporated into DNA during DNA synthesis) was added to the cultures for the final 5 h of incubation. Cells were then fixed, labeled with a fluorescent anti-BrdU antibody, and the percentage of cells that incorporated BrdU (ie, were proliferating) was determined.
smiles,measurement,setting,value
CO[C@H]1[C@@H](O)[C@H](C)C[C@H](C)/C=C/C=C/C=C(\C)[C@@H](c2c[nH]c3c(C)cccc23)C[C@@H]2CC[C@@H](C)[C@@](O)(O2)C(=O)C(=O)N2CCCC[C@H]2C(=O)O[C@H]([C@H](C)C[C@@H]2CC[C@@H](O)[C@H](OC)C2)C[C@H](O)[C@H](C)/C=C(\C)[C@H]1O [AP21967],Flag-ER expression from the transfected gene,[1]; cells containing 3' Flag-ER,highly induced
same,endogenous ER expression,[1]; vector containing cells,did not alter this expression
"C[C@]12CC[C@@H]3c4ccc(O)cc4C[C@@H](CCCCCCCCC[S+]([O-])CCCC(F)(F)C(F)(F)F)[C@H]3[C@@H]1CC[C@@H]2O (some centres unmarked) [ICI, ICI 182,780]",co-precipitation of MP1 with ER (ER/MP1 complex formation),[2],not
same,effect of MP1 co-transfection on ER activity (ERE-Luc) in the presence of ligand,[3],not
"CC/C(=C(\c1ccccc1)c1ccc(OCCN(C)C)cc1)c1ccccc1 [Tam, tamoxifen]",effect of MP1 overexpression on proliferation (percentage of cells that incorporated BrdU) in the presence of ligand,[4],dramatically increases proliferation
